Reference: US10858410B2, “Glycosylated peptides with pseudoproline residues and having enhanced half-lives and ability to cross the blood brain barrier” (ARIZONA BOARD OF REGENTS ON BEHALF OF THE UNIVERSITY OF …, priority 2015, dated 2020)
“Also recorded” adds a separate entry of the source. No end group written: not given here.

Assays:
[1] = in vivo, ip
[2] = test system: PC12 cells; assay: Differentiation of cultured PC12 cells; type: cell-based; conditions: 100 nM, compared to vehicle treated cells, qualitative
Procedure: The PC12 cells were cultured in RPMI containing 5% heat inactivated fetal bovine serum and 10% horse serum in the presence of 100 units/mL penicillin and 100 microgram/mL streptomycin. The cells were plated on poly-D-Lysine coated 6-well tissue culture plates at a density of 150,000 cells per well in 2 mL media. After 48 hours at 37° C. in 5% CO2 atmosphere, media exchange was performed and plates were dosed, using the peptide diluent (water) for the control samples. […] Cell images of each treatment group were captured and compared to the control cells to screen for differentiation and cell body volume increases. Cells having neurite-like process outgrowth were noted and photographed. The neurite-like outgrowth was deemed positive if its length was at least two times the width of the cell body.

[3] = test system: PACAP receptors in human neuroblastoma NB-OK-1 cell membranes; conditions: Robberecht et al. 1992; read-out: reported Ki values; cited from earlier work
[4] = biological target: T1, human PAC1 receptors (Homo sapiens, UniProt P41586); assay: FLIPR calcium flux, antagonist fixed concentration mode (Gaddum/Schild EC50 shift), PAC1-CHO cells; type: cell-based; conditions: for shift of PACAP1-27 agonist curves: fixed concentrations of antagonist up to 1 μM
T1 construct: host or cells: CHO (clonal line PAC1-CHO)
T1 sequence (P41586 21-468): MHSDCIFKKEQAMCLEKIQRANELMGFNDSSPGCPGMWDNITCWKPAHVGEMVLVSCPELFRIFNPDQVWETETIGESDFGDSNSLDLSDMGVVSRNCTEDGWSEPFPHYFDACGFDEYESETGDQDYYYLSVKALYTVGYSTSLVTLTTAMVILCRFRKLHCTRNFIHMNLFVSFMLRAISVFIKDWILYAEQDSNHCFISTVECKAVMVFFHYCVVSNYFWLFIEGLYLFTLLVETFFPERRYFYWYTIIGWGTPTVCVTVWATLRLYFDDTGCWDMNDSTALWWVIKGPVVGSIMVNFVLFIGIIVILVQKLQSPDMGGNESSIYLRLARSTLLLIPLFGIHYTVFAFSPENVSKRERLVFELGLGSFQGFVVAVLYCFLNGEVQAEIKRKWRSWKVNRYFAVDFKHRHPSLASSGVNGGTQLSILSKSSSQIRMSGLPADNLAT
Procedure: A custom DNA clone of the human PAC1 gene with 3 hemagglutinin (HA) tags inserted 3′ to the signal peptide sequence (to avoid proteolytic loss) was obtained from Genecopoeia (Rockville, Md.). The construct was electroporated into Chinese Hamster Ovary (CHO) cells, and selected for with 500 μg/mL of G418. The resulting population was screened for high expressing clones, and one such clone selected for further analysis. […] This cell line was used for all molecular pharmacology experiments. […] All molecular pharmacology experiments were carried out using a FLIPR Tetra from Molecular Devices (Sunnyvale, Calif.), set to image calcium flux using the manufacturer's recommended settings and protocols. The day before an experiment, the PAC1-CHO cells were split into 384 well black walled, clear bottom microplates, 10,000 cells per well. The cells were recovered overnight in growth medium (as above). The next day, the growth medium was replaced with Calcium 6 dye (Molecular Devices) using the manufacturer recommended buffer with 2.5 mM probenecid. The cells were incubated for 2 hours in the culture incubator, and removed during the last 15 minutes to allow equilibration to room temperature. Compound as indicated below was added to the cells using a 384 tip block, with real time monitoring before, during, and 15 minutes after compound addition. The resulting calcium flux was recorded, and the maximum-minimum response over the entire observation time calculated and reported as the mean±SEM (4 wells per point). For antagonist mode experiments, a concentration curve (variable concentration mode) or fixed amount (fixed concentration mode) of antagonist was added to the cells, and allowed to equilibrate for 2 minutes. […] The resulting data was analyzed using a Gaddum/Schild EC50 shift model, (Schild, 1957, Gaddum, 1957) designed to analyze competitive antagonism. […] The pharmacology values are calculated separately from each experiment, then combined and reported as the mean±SEM for the entire set of experiments.

[5] = biological target: T1, human PAC1 receptors; assay: FLIPR calcium flux, antagonist variable concentration mode versus 5 nM PACAP1-27, PAC1-CHO cells; type: cell-based; conditions: up to 1 μM
Procedure: A custom DNA clone of the human PAC1 gene with 3 hemagglutinin (HA) tags inserted 3′ to the signal peptide sequence (to avoid proteolytic loss) was obtained from Genecopoeia (Rockville, Md.). The construct was electroporated into Chinese Hamster Ovary (CHO) cells, and selected for with 500 μg/mL of G418. The resulting population was screened for high expressing clones, and one such clone selected for further analysis. […] This cell line was used for all molecular pharmacology experiments. The cells were maintained in DMEM/F12 with 10% heat-inactivated FBS, 1× penicillin/streptomycin, and 500 μg/mL G418, at 37° C. and 5% CO2.
All molecular pharmacology experiments were carried out using a FLIPR Tetra from Molecular Devices (Sunnyvale, Calif.), set to image calcium flux using the manufacturer's recommended settings and protocols. […] The resulting calcium flux was recorded, and the maximum-minimum response over the entire observation time calculated and reported as the mean±SEM (4 wells per point).
For antagonist mode experiments, a concentration curve (variable concentration mode) or fixed amount (fixed concentration mode) of antagonist was added to the cells, and allowed to equilibrate for 2 minutes. […] The resulting data was analyzed using a Gaddum/Schild EC50 shift model, (Schild, 1957, Gaddum, 1957) designed to analyze competitive antagonism. […]

Compound	presence in mouse brain / crossing the blood brain barrier [1]	neurite-like process outgrowth / differentiation [2]	Ki [3]	Schild Slope ([4]; fixed concentration mode)	shift of PACAP1-27 agonist curves [4]	antagonist activity at PAC1 (in words) [5]
CC[C@H](C)[C@H](NC(=O)CNC(=O)[C@H](CC(=O)O)NC(=O)[C@H](CO)NC(=O)[C@@H](N)Cc1c[nH]cn1)C(=O)N[C@@H](Cc1ccccc1)C(=O)N[C@H](C(=O)N[C@@H](CC(=O)O)C(=O)N[C@@H](CO)C(=O)N[C@@H](Cc1ccc(O)cc1)C(=O)N[C@@H](CO)C(=O)N[C@@H](CCCNC(=N)N)C(=O)N[C@@H](Cc1ccc(O)cc1)C(=O)N[C@@H](CCCNC(=N)N)C(=O)N[C@@H](CCCCN)C(=O)N[C@@H](CCC(N)=O)C(=O)N[C@@H](CCSC)C(=O)N[C@@H](C)C(=O)N[C@H](C(=O)N[C@@H](CCCCN)C(=O)N[C@@H](CCCCN)C(=O)N[C@@H](Cc1ccc(O)cc1)C(=O)N[C@@H](CC(C)C)C(=O)N[C@@H](C)C(=O)N[C@@H](C)C(=O)N[C@H](C(=O)N[C@@H](CO[C@@H]1O[C@H](CO)[C@@H](O)[C@H](O)[C@H]1O)C(N)=O)C(C)C)C(C)C)[C@@H](C)O [PACAP1-27-S-G]	presence in mouse brain could be detected					
CC[C@H](C)[C@H](NC(=O)CNC(=O)[C@H](CC(=O)O)NC(=O)[C@H](CO)NC(=O)[C@@H](N)Cc1c[nH]cn1)C(=O)N[C@@H](Cc1ccccc1)C(=O)N[C@H](C(=O)N[C@@H](CC(=O)O)C(=O)N[C@@H](CO)C(=O)N[C@@H](Cc1ccc(O)cc1)C(=O)N[C@@H](CO)C(=O)N[C@@H](CCCNC(=N)N)C(=O)N[C@@H](Cc1ccc(O)cc1)C(=O)N[C@@H](CCCNC(=N)N)C(=O)N[C@@H](CCCCN)C(=O)N[C@@H](CCC(N)=O)C(=O)N[C@@H](CCSC)C(=O)N[C@@H](C)C(=O)N[C@H](C(=O)N[C@@H](CCCCN)C(=O)N[C@@H](CCCCN)C(=O)N[C@@H](Cc1ccc(O)cc1)C(=O)N[C@@H](CC(C)C)C(=O)N[C@@H](C)C(=O)N[C@@H](C)C(=O)N[C@H](C(=O)N[C@@H](CC(C)C)C(N)=O)C(C)C)C(C)C)[C@@H](C)O [PACAP1-27]		induced neurite outgrowth				
CSCC[C@H](NC(=O)[C@H](CCC(N)=O)NC(=O)[C@H](CCCCN)NC(=O)[C@H](CCCNC(=N)N)NC(=O)[C@H](Cc1ccc(O)cc1)NC(=O)[C@H](CCCNC(=N)N)NC(=O)[C@H](CO)NC(=O)[C@H](Cc1ccc(O)cc1)NC(=O)[C@H](CO)NC(=O)[C@H](CC(=O)O)NC(=O)[C@@H](NC(=O)[C@@H](N)Cc1ccccc1)[C@@H](C)O)C(=O)N[C@@H](C)C(=O)N[C@H](C(=O)N[C@@H](CCCCN)C(=O)N[C@@H](CCCCN)C(=O)N[C@@H](Cc1ccc(O)cc1)C(=O)N[C@@H](CC(C)C)C(=O)N[C@@H](C)C(=O)N[C@@H](C)C(=O)N[C@H](C(=O)N[C@@H](CC(C)C)C(=O)NCC(=O)N[C@@H](CCCCN)C(=O)N[C@@H](CCCNC(=N)N)C(=O)N[C@@H](Cc1ccc(O)cc1)C(=O)N[C@@H](CCCCN)C(=O)N[C@@H](CCC(N)=O)C(=O)N[C@@H](CCCNC(=N)N)C(=O)N[C@H](C(=O)N[C@@H](CCCCN)C(=O)N[C@@H](CC(N)=O)C(=O)N[C@@H](CCCCN)C(N)=O)C(C)C)C(C)C)C(C)C [PACAP6-38]			1.5 nM	2.0±0.1	induced a shift only at 1 μM; also recorded: shifts the curve only at the highest concentration (1 μM)	very weak antagonist activity; also recorded: shows antagonism, but it is low potency
FTDSY10SRYRKQMAVK20KYLAAVL (FTDSYSRYRKQMAVKKYLAAVL-NH2; ends and bridges not checked) [PACAP6-27]			60 nM		caused no shift in the agonist curves; also recorded: no detectable shifts in the agonist curves	no antagonist activity and none
